Data published in US20190298796A1, “Therapeutic Compositions from the Brevinin-1 Family of Peptides and Uses Thereof” (priority 2016, published 2019).
Values after ≈ are worked out from the molar mass of the structure shown. Residues, ends and D or L forms follow the SMILES beside them.

Legend:
[1] = system: Bacillus coagulans ATCC 7050; type: cell-based; details: lowest concentration killing entire bacteria, 24 hrs
Description: (§1) Antimicrobial activity: Broth dilution method [39] was used to assess the antimicrobial activity of the peptides. Bacterial strains used for in vitro antibacterial assay were Staphylococcus aureus (MTCC 9542), Bacillus subtilis (MTCC 14416), Bacillus coagulans (ATCC 7050), Methicillin-resistant Staphylococcus aureus (MRSA) (ATCC 43300), Streptococcus mutans (MTCC 497), Streptococcus gordonii (MTCC 2695), Vibrio cholerae (MCV09), Escherichia coli (ATCC 25922), Vancomycin-resistant enterococcus (VRE) (ATCC 29212) and gram-negative fish pathogens Aeromonas hydrophila (ATCC 7966) and Aeromonas sobria (ATCC 43979). Bacterial cultures were grown in Muller Hinton broth (MHB) (Hi-media) by overnight incubation at 37° C. with constant shaking. Microbial cultures having 10^6 CFU/ml were made from OD600: 0.6 cultures. 400 μM stock solutions of peptides were prepared in autoclaved double distilled water and diluted in MHB to make concentrations ranging from 0.7 to 100 μM. Bacterial inoculum without peptide was used as the negative control.

[2] = system: Staphylococcus aureus MTCC 9542; type: cell-based; details: lowest peptide concentration required to kill entire bacteria, 24 hrs, NA = not active up to the highest concentration tested
Description: as §1

[3] = system: Bacillus subtilis MTCC 14416; type: cell-based; details: lowest concentration killing entire bacteria, 24 hrs
Description: as §1

MRSA ATCC 43300 = type: cell-based, Methicillin-resistant Staphylococcus aureus; details: lowest concentration killing entire bacteria, 24 hrs
Description: as §1

gram-negative bacteria = assay: MIC range over the tested gram-negative bacteria; type: cell-based
Description: as §1

VRE ATCC 29212 = details: lowest concentration killing entire bacteria, 24 hrs
Description: as §1

human erythrocytes = type: cell-based; details: 60 min, at the peptide's MIC for Staphylococcus aureus MTCC 9542 (MIC in parenthesis)
Experimental: Hemolytic Activity: Hemolytic assay was carried out as previously described. Briefly, 10% (v/v) suspensions of fresh human erythrocytes in phosphate buffered saline (pH 7.2) were incubated with different concentrations (100 μM-0.7 μM) of B1/1 COOH & B1/2 COOH, B1/1 CONH2 & B1/2 CONH2 and cyclic B1/1 CONH2 & cyclic B1/2 CONH2 and incubated at 3^7° C. for 60 min. The cells were centrifuged (3000×g) for 5 min, and absorbance of the supernatant was measured at 595 nm. Hemolysis caused by 10% Triton X-100 was taken as positive control. Percentage hemolysis was calculated by measuring the mean amount of hemoglobin released as a result of lysis of erythrocyte from three independent experiments.

Compound `CC[C@H](C)[C@H](NC(=O)CNC(=O)[C@@H]1CCCN1C(=O)[C@H](Cc1ccccc1)NC(=O)[C@@H](N)Cc1ccccc1)C(=O)N[C@H](C(=O)N[C@@H](CCCCN)C(=O)N[C@H](C(=O)N[C@@H](C)C(=O)NCC(=O)N[C@@H](C)C(=O)N[C@H](C(=O)N[C@@H](CC(C)C)C(=O)N1CCC[C@H]1C(=O)N[C@H](C(=O)N[C@@H](C)C(=O)N[C@H](C(=O)N[C@@H](CS)C(=O)N[C@@H](C)C(=O)N[C@H](C(=O)N[C@H](C(=O)N[C@@H](CCCCN)C(=O)N[C@@H](CCCNC(=N)N)C(=O)N[C@@H](CS)C(=O)O)[C@@H](C)O)[C@@H](C)CC)[C@@H](C)CC)[C@@H](C)O)[C@@H](C)CC)C(C)C)[C@@H](C)CC` [B1/2 COOH] (H-FFPGIIKVAGAILPTAICAITKRC-OH; N-terminus assumed) has an MIC [1] of 25 µM (≈ 62.6 µg/mL), an MIC [2] of 12.5 µM (≈ 31.3 µg/mL) and an MIC [3] of 67.5 µM (≈ 169 µg/mL). For the same compound, the MIC (MRSA ATCC 43300) was 30 µM (≈ 75.1 µg/mL), the “Activity against gram-negative bacteria (MIC range)” value (gram-negative bacteria) was “not with gram-negative bacteria” and the MIC (VRE ATCC 29212) was 50 µM (≈ 125 µg/mL). For the same compound, the “Percentage hemolysis at MIC” value (human erythrocytes) was 25%.
